{"source": "patent EP2039702A2", "about": "“Prodrugs erbeta-selective substances, method for their production and pharmaceutical compounds containing these compositions” (Bayer Schering Pharma Aktiengesellschaft, priority 2005, dated 2007)", "target": "humaner Carboanhydrase II (Homo sapiens, UniProt P00918)", "experiment": "Carbonic anhydrase inhibition, photometric, nitrophenyl acetate conversion on microtitre plates", "format": "biochemical", "details": "humane Carboanhydrase II; read-out: CAII IC50", "source_text": "Photometrische Bestimmung der Hemmung von humaner Carboanhydrase I oder II durch Sulfonamide oder Sulfamate auf Mikrotiterplatten mit Hilfe der enzymatischen Umwandlung von Nitrophenylacetat mit einem Farbumschlag von farblos nach gelb. Tabelle 1: IC50 Hemmwerte humaner Carboanhydrase I und II"}
{"smiles": "C[C@]12CC[C@@H]3c4ccc(OS(N)(=O)=O)cc4CC[C@H]3[C@@H]1CC[C@@H]2O", "note": "[Estradiol-3-sulfamat]", "values": [{"measurement": "IC50", "value": "0.0216 ± 0.0015", "unit": "µM"}]}
